Experimental findings from patent US20150252329A1, “METHODS AND APPARATUS FOR CULTURING CILIATED CELLS” (THE UNIVERSITY OF NORTH CAROLINA AT CHAPEL HILL, priority 2012, published 2015) are described below.

The assay deals with human airway epithelial cells. The assay is described as follows: CBF and MCT speed of HAE cells cultured in the MCTD after stimulation by ATPγS. The following applies: HAE cell cultures with circular MCT in the MCTD; 1 mM ATPγS in buffer added to apical surface; average of four experiments/donors; p<0.05 vs carrier and baseline. It counts as cell-based. The text has this:
An MCT culturing device (MCTD) and the MCT system (MCTS) generally configured as shown for the MCTD 100 and MCTS 10 were constructed. The MCTD was constructed on a 30 mm Millicell™ cell culture insert (Millipore, Ireland). The base of an approximately 15 mm diameter central cylinder of cell culture compatible material (nylon, polystyrene) was attached to the center interior of the cell culture insert with an inert, silicone-based sealer. The approximately 4.0 mm outer ring or track defined in the bottom of the cell culture insert between the central cylinder and the cell culture insert was then coated with human Type IV collagen at ˜90 μg/cm^2, air-dried, and UV-irradiated. […] Cultures were examined at the time of media change and the extent of ciliation and the development of continuous, circular transport was recorded. […] High speed videos were recorded from four equally spaced positions around the MCTD. Ciliary beat frequency (CBF) was determined by whole field analysis using the SAVA™ software program (Sisson, Stoner et al. 2003), and the speed and direction of particle transport were determined by tracking particles of debris in the mucus. Alternatively, a small volume of fluid (0.5 μl) containing fluorescent beads was added to the mucus layer, and after equilibration (5-10 minutes), the motion of the fluorescent beads was recorded and analyzed using fluorescent microscopy. […]

With `Nc1ncnc2c1ncn2[C@@H]1O[C@H](COP(=O)(O)OP(=O)(O)OP(O)(O)=S)[C@@H](O)[C@H]1O` [ATPγS], the “MCT speed (mucociliary transport)” value is “significantly increased” and the “ciliary beat frequency (CBF)” value is “significantly increased”.
